Laboratory results taken from publication PMC6347702 (Proceedings of the National Academy of Sciences of the …, 2019).

Columns and labels:
Assay in all cases: spectrophotometric enzyme assay, recombinant human enzyme, […] ATP-Mg2+
Format in all cases: biochemical
hexokinase 3 (hHK3) = molecular target: T1, hexokinase 3 (hHK3) (Homo sapiens, UniProt P52790)
T1 sequence (P52790 1-923): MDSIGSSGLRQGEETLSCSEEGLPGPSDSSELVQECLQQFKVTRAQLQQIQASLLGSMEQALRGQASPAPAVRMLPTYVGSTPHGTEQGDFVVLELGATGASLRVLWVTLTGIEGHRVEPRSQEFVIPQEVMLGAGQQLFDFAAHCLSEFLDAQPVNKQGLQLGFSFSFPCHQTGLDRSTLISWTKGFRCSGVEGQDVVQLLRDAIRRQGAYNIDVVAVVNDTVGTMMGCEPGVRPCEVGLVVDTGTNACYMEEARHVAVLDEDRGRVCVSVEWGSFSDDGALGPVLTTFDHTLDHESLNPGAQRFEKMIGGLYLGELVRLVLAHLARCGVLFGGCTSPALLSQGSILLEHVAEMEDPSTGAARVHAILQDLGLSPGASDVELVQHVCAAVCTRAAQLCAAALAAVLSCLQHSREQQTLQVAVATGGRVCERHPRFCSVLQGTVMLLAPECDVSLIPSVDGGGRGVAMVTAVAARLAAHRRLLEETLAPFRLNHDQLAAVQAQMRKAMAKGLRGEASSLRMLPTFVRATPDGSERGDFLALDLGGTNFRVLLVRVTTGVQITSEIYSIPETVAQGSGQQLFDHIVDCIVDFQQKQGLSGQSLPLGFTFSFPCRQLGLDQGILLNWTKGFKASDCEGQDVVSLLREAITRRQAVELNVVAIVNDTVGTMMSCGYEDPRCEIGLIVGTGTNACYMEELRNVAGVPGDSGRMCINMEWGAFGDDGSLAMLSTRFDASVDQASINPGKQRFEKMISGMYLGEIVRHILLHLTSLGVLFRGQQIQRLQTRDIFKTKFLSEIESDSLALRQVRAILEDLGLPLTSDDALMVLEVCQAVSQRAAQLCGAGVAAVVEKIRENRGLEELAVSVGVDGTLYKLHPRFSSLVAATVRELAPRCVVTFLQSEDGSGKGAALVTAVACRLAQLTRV

hexokinase 2 (∆28-hHK2) = molecular target: T2, hexokinase 2 (∆28-hHK2) (Homo sapiens, UniProt P52789)
T2 sequence (P52789 29-917): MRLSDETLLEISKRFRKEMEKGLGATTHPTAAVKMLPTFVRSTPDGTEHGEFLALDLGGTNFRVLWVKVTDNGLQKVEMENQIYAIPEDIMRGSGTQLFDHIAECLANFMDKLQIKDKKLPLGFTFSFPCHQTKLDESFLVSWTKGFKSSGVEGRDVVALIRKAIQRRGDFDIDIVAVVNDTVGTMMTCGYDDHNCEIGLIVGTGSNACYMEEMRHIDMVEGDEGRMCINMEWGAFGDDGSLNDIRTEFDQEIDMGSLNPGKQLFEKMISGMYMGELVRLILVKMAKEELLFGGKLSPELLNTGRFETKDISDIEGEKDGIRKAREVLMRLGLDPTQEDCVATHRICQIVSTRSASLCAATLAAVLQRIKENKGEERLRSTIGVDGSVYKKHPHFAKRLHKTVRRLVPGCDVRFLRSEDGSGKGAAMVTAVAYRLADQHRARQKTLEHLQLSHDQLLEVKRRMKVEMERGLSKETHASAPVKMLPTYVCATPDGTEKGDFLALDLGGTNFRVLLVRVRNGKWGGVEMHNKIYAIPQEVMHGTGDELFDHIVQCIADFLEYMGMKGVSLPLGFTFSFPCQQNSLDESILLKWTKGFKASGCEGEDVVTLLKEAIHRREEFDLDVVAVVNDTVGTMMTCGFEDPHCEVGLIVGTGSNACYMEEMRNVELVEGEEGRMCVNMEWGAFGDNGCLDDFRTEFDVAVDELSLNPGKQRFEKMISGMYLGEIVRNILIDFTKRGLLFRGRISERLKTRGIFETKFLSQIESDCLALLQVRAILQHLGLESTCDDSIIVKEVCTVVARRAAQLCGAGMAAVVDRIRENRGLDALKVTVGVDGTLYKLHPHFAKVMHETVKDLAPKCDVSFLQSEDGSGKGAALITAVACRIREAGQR

hexokinase 1 (∆21-hHK1) = molecular target: T3, hexokinase 1 (∆21-hHK1) (Homo sapiens, UniProt P19367)
T3 sequence (P19367 22-917): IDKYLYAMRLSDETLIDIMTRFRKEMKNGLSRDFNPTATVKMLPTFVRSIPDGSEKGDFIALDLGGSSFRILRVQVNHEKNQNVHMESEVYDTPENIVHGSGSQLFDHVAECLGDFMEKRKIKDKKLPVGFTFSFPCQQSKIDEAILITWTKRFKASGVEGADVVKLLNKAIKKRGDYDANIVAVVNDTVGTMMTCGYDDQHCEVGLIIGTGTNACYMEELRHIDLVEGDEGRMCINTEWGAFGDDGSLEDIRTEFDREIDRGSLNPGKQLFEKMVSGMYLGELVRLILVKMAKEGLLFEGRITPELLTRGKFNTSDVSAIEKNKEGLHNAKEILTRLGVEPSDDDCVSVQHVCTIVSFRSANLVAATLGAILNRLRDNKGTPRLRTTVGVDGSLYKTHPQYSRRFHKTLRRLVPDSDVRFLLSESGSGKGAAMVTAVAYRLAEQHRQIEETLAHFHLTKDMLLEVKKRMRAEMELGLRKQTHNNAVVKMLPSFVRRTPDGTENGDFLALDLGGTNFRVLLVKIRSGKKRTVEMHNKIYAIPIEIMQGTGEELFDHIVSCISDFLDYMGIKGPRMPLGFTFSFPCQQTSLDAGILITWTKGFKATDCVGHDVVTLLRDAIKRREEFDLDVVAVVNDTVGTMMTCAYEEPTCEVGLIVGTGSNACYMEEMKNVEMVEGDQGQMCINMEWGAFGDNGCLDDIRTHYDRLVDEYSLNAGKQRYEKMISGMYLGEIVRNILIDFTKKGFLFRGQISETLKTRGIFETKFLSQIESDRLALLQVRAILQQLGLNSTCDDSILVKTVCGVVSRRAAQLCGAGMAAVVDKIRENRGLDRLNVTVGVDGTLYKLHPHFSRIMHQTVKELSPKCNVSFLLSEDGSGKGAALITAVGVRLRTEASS

Ki (hexokinase 3 (hHK3)): 134 ± 9 µM
Ki (hexokinase 2 (∆28-hHK2)): 96 ± 3 µM
Ki (hexokinase 1 (∆21-hHK1)): 53 ± 2 µM
SMILES: O=P(O)(O)OC[C@H]1OC[C@H](O)[C@@H](O)[C@@H]1O [1,5AG6P, 1,5-anhydroglucitol-6-phosphate]
